According to patent US20090075902A1, “INHIBITING THE SIGNS OF AGING BY INHIBITING NF-KAPPA B ACTIVATION” (priority 2007, published 2009):

What was measured:
Ercc^−/Δ mouse = assay: Delayed onset of frailty in a mouse treated with Compound A; type: in vivo; details: 5 MG/KG of Compound A, n=1; oil control n=3
Protocol: Delayed onset of frailty in an Ercc^−/Δ mouse treated with 5 MG/KG of Compound A

NF-κB activation = details: (Wen 2006); cited from earlier work
Ercc1^−/Δ mice [1] = assay: Pilot study: chronic 8K-NBD treatment, onset and severity of progeroid symptoms; type: in vivo, mouse
Protocol: FIG. 6. Exposure paradigm for pilot study to determine the impact of 8K-NBD on quality of life in progeroid Ercc1^−/Δ mice. 8K-NBD was dissolved in 5% DMSO in PBS and injected intraperitoneally. A littermate Ercc1^−/Δ mouse was treated with an equal volume of vehicle only (PBS). The study was concluded at 19 wks when the mouse treated with vehicle only became profoundly ataxic and cachectic, requiring euthanization.
Studies were performed to determine if inhibition of NF-κB activation ameliorates accelerated aging in Ercc1^−/Δ mice. An Ercc1^−/Δ mouse was chronically treated with 8K-NBD peptide as described in FIG. 6. The age at onset of numerous progeroid symptoms were recorded (Table II). Ataxia and priapism, both caused by neurodegeneration (Rolig and McKinnon, 2000), were delayed by 3 wks and 1.5 wks respectively in the mouse treated with 8K-NBD.
Motor strength and coordination were measured weekly in the mice by testing their ability to cross a balance beam (FIG. 9A) and to remain suspended from a wire (FIG. 9B).

Ercc1^−/Δ mice [2] = assay: Third series: double blinded twin study, 8K-NBD versus negative control 8K-mNBD; type: in vivo, mouse
Protocol: FIG. 12. Treatment schedule for third series of experiments; treatment with 8K-NBD or negative control 8k-mNBD.
In a third series of experiments, a different treatment regimen was used (FIG. 12) in which treatment with 8K-NBD or a negative control peptide, 8K-mNBD (having a mutated sequence, […] (SEQ ID NO:7)) was initiated earlier than the above regimens at approximately 5 weeks (8K-NBD or 8K-mNBD, 10 mg/kg) administered intraperitoneally three times per week). This was a double blinded twin study designed to eliminate genetic and environmental variables.
FIG. 13 presents a table showing the phenotypic changes associated with aging in mice treated with 8k-NBD or negative control 8k-mNBD. The overall aging score was improved by 30 percent in 8K-NBD versus 8K-mNBD-treated mice, indicating a significant delay in the onset of age-related symptoms corresponding to over a decade in human life.
FIG. 15A-D presents a comparison of levels of hepatocellular senescence, as measured by staining for p16 protein, in young and senescent wild-type mice as well as Ercc1^−/Δ mice treated with either 8K-NBD or negative control 8K-mNBD according to the regimen of FIG. 12 at the age of 18 weeks.

Ercc1^−/Δ mice [3] = assay: Second series: 8K-NBD in an older symptomatic mouse, liver and skeletal muscle histopathology; type: in vivo
Protocol: FIG. 10. Exposure paradigm for pilot study to determine the impact of 8K-NBD on histopathologic changes in progeroid Ercc1^−/Δ mice. 8K-NBD was dissolved in 5% DMSO in PBS and injected i.p.
In a second series of experiments, an older Ercc1^−/Δ mouse, which already had progeroid symptoms, was chronically exposed to 8K-NBD then euthanized at 20 wk of age to determine if 8K-NBD affected histopathologic changes associated with aging (FIG. 10). Liver and skeletal muscle (SKM) were dissected, fixed, sectioned and stained. Tissues were compared to age-matched untreated Ercc1^−/Δ. The liver of Ercc1^−/Δ mice display large polyploid nuclei (FIG. 11A, 10×) characteristic of senescent hepatocytes (Gupta, 2000). […] This is consistent with previous reports that in mouse models of numerous inflammatory myopathies, persistent NF-κB activity is associated with necrotic and regenerative changes (Monici et al., 2003).

mice = details: cited from earlier work
[4] = 8K-NBD 10 mg/kg i.p. chronically, versus sibling treated with vehicle only
[5] = 8K-NBD versus vehicle-treated mouse

## Cl.O=C1Nc2nc(-c3c(O)cccc3OCC3CC3)cc([C@@H]3CCCNC3)c2CO1 [Compound A]
Ercc^−/Δ mouse
  Ataxia (onset): 19.3
  Dystonia (onset): 13.7
  Kyphosis (onset): 14.3
  Trembling (onset): 12.7
  Wasting (onset): 19.7

## COc1c(Cl)cc2c([nH]c3cnccc32)c1NC(=O)c1cccnc1C [ML120B, (N-6-chloro-7-methoxy-9H-β-carbolin-8-yl)-2-methylnicotinamide]
NF-κB activation
  IC50: 60 nM

## KKKKKKKK-GG-TALDWSWLQTE (SEQ ID NO:2) (KKKKKKKKGGTALDWSWLQTE) [8K-NBD]
Ercc1^−/Δ mice [1]; [4]
  Delay of onset of ataxia: 3 wks
  Delay of onset of priapism: 1.5 wks
Ercc1^−/Δ mice [1]; 8K-NBD versus untreated and vehicle-treated mice
  Body weight maintenance: maintained weight longer
Ercc1^−/Δ mice [1]; [5]
  Ambulation and general appearance: improved
  Severity of dystonia, trembling and kyphosis: significantly reduced
Ercc1^−/Δ mice [1]; 8K-NBD versus vehicle-treated sibling
  Delay in onset of symptoms (cachexia, loss of muscle mass and vision): ≥ 3 wk
Ercc1^−/Δ mice [1]; tested weekly, versus untreated mice (n=7)
  Motor strength and coordination (balance beam, suspension from a wire): tended to perform better
Ercc1^−/Δ mice [1]; within the 19 wk period of the study, vehicle mouse showed them by 16 wks of age
  Onset of cachexia, loss of muscle mass and vision: did not arise
Ercc1^−/Δ mice [2]; 8K-NBD versus 8K-mNBD, 10 mg/kg i.p. three times per week from approximately 5 weeks
  Improvement of overall aging score: 30%
Ercc1^−/Δ mice [2]; at the age of 18 weeks
  Hepatocellular senescence, p16 protein staining pattern: more closely resembles that of a young, healthy mouse
Ercc1^−/Δ mice [2]; at the age of 18 weeks, relative to 8K-mNBD-treated animal
  Neurodegeneration, GFAP staining pattern: more closely resembles that of the young wild-type mouse
Ercc1^−/Δ mice [3]; at 20 wk of age, untreated Ercc1^−/Δ SKM showed necrosis
  Skeletal muscle (SKM) pathology: devoid of pathologic changes
Ercc1^−/Δ mice [3]; liver at 20 wk of age, versus age-matched untreated Ercc1^−/Δ
  Hepatocyte cytoplasm to nuclear ratio: much higher
Ercc1^−/Δ mice [3]; liver at 20 wk of age, suggestive of liver regeneration
  Hepatic architecture: effaced

## KKKKKKKKGGTALDASALQTE (SEQ ID NO:7) [8K-mNBD, reference compound]
Ercc1^−/Δ mice [2]; at 17 weeks of age, compared with 8K-NBD-treated sibling and wild-type littermate
  Degree of osteoporotic changes (micro-CT of vertebra): appears greatest
Ercc1^−/Δ mice [2]; at the age of 18 weeks
  Hepatocellular senescence, p16 protein staining pattern: more closely resembles the pattern in senescent wild-type hepatocytes

## TALDWSWLQTE; SEQ ID NO:1 [NBD peptide]
mice
  Toxicity on systemic administration: not toxic
